Measured values from patent US20230295159A1, “ATX INHIBITOR, AND PREPARATION METHOD THEREFOR AND USE THEREOF” (SUZHOU ARK BIOPHARMACEUTICAL CO., LTD., priority 2020, published 2023).
Like-named read-outs stand apart in the source and are kept apart here. Blank lines part the entries; values can stand above or below the compound they belong to.

Columns and labels:
ATX enzyme = ATX enzyme (Homo sapiens (Human), UniProt Q13822); experiment: ATX enzyme activity inhibition assay; assay type: biochemical; settings: 16:0-LPC substrate, Amplex UltraRed fluorescence
Experimental: The tested compounds were dissolved with dimethyl sulfoxide (DMSO) to prepare 20 mM of stock solutions, the stock solutions were subjected to 4-fold gradient dilutions with DMSO, with the initial concentration of 20 µM and a total of 8 concentration gradients. 20 nL of diluted compound was transferred to a 384-well plate using Echo 550 and 5 µL of ATX enzyme solution formulated with 4 × Tris-HCl reaction buffer to the well, then the 384-well plate was centrifuged at 1000 rpm for 1 min and […] pre-incubated at room temperature for 15 min. Subsequently, 5 µL of 16:0-LPC foumulated with the above 4 × reaction buffer and 10 µL of assay solution containng 2 × Amplex UltraRed reagent, choline oxidase and horseradish peroxidase (HRP) foumulated with the same reaction buffer were added to each well, then the 384-well plate was centrifugated at 1000 rpm for 1 min. The fluorescence signals were read at an excitation wavelength of 530 nm and an emission wavelength of 590 nm by Synergy 2 microplate reader. The inhibition rate of the compound against enzyme reaction was calculated according to the fluorescence intensity ratio, and IC50 of the compound was analysed and calculated by GraphPad Prism 5 software.

[1] = Rat pharmacokinetic study; assay type: in vivo, SD rat; settings: for F: PO 10 mg/kg vs IV 2 mg/kg; for AUC(0-inf) / AUC(0-t) / Cmax / half-life / Tmax: SD, plasma; for half-life: read-out: t½ (converted)
Experimental: SD rat pharmacokinetic study was performed on several compounds in Examples of the present disclosure through a single intravenous injection (IV, at a dose of 2 mg/kg) and a single oral administration (PO, at a dose of 10 mg/kg), and blood samples were taken before administration and 5 min, 15 min, 30 min, 1 h, 2 h, 4 h, 8 h, 12 h and 24 h after administration, respectively, to determine the plasma concentration of the compound for assay. The pharmacokinetic data of control compound and the compounds in Examples 17, 26, 28 and 29 of the present disclosure in rat plasma are shown in Tables 4-8.

[2] = test system: Chinese hamster ovary cells (CHO-WBL); experiment: In vitro micronucleus assay with Chinese hamster ovary cells
Experimental: In the major micronucleus assay, CHO-WBL cells were exposed to at least 3 concentrations of the test object, while vehicle control group and positive control group were set up, with 2 replicated wells for each dose group. In inactivated test system, the administration lasted for 3 and 24 hours, and in S9 activated test system, the exposure to the test object lasted for 3 hours.
When choosing the highest dose for micronucleus frequency assay, the cytotoxicity of dose group of the test object should not substantially exceed 50% of that of the corresponding vehicle control group.
On the premise that the test is valid, the test results are evaluated according to the following criteria:
If the test object simutaneously meets the following criteria, it can be considered as positive:
A significant increase in micronucleus frequency is observed in one or more concentration groups.
If none of the above three points is met, the test object can be considered as negative.

hERG potassium channel = hERG potassium channel (Homo sapiens (Human), UniProt Q12809); experiment: hERG inhibition assay (manual whole-cell patch clamp); assay type: cell-based; settings: hERG tail current, stable transfected cell line
Chain of hERG potassium channel (Q12809 whole entry): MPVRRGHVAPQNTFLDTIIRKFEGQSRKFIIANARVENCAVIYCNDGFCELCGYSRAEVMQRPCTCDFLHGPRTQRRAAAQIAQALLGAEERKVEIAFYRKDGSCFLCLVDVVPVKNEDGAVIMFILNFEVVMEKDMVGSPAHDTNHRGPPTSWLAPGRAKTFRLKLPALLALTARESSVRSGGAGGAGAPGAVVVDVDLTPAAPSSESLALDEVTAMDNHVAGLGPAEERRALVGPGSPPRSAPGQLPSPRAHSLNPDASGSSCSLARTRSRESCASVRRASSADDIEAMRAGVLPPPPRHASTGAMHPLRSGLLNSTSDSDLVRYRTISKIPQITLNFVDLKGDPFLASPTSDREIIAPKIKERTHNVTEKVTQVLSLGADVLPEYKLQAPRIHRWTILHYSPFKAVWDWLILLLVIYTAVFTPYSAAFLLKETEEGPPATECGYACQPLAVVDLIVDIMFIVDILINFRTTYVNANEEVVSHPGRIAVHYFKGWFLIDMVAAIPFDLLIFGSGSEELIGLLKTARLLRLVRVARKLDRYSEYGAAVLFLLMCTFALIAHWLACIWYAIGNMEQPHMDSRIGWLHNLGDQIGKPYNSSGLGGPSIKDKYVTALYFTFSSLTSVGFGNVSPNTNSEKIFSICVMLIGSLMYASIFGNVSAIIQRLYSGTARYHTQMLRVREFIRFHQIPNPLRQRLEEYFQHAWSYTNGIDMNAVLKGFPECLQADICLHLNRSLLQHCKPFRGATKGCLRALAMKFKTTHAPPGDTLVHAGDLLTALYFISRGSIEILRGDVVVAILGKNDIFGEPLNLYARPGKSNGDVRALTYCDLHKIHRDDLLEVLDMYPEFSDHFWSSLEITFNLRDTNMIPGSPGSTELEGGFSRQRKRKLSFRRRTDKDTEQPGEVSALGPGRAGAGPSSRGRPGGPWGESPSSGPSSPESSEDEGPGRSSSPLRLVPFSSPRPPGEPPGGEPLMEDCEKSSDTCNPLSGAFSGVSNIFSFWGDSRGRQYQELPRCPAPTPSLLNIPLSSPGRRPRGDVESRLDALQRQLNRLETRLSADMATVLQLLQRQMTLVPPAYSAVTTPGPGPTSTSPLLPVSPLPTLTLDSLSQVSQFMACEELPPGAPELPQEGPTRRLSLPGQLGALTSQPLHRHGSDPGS
Experimental: Rapid activation of human delayed rectifier potassium current (IKr) is mainly mediated by hERG ion channel and participates in repolarization of human cardiomyocytes. Blocking this current with drugs will lead to QT interval prolongation syndrome in clinical practice, which will easily induce acute arrhythmia and even sudden death.
Experimental method: a whole-cell patch clamp technique was used to record hERG current. The cell suspension was added to a small petri dish and placed on an inverted microscope stage. After adherence, the cells were perfused with extracellular fluid at a recommended flow rate of 1-2 mL/min. The glass microelectrode was drawn by a microelectrode drawing instrument in two steps, and the resistance thereof after filling the electrode interior liquid was 2-5 MΩ. After the whole-cell recording mode was set up, the clamping potential was maintained at -80 mV. The depolarization voltage was applied to +60 mV for 850 ms, and then repolarized to -50 mV for 1275 ms to induce hERG tail current. Such a set of pulse programming was repeated every 15 seconds throughout the experiment. After the current was stable, the drug was administered by extracellular continuous perfusion from low concentration to high concentration. Starting from low concentration, perfusion continued until the drug effect was stable, then perfusion at the next concentration was performed. In this experiment, the blocking effect on hERG tail current was tested for the test objects at different concentrations and the positive control (N ≥ 2). Then, stimulus generation and signal acquisition were carried out by PatchMaster software; and a signal was amplified with a patch clamp amplifier. FitMaster, EXCEL, Graphpad Prism, SPSS 21.0, etc. were used for further data analysis and curve fitting. In data processing, when determining the blocking effect on hERG, the peak and baseline of tail current were calibrated. The inhibition rate (IR) of tail current was used to express the effect of the compounds at different concentrations.
IR = 100% × (peak of tail current before administration - peak of tail current after administration)/peak of tail current before administration.
IC50 was obtained by fitting the Hill equation (if applicable), if the maximum inhibition rate of the test object at all concentrations was less than 50%, then IC50 was not calculated. [00500]

CYP3A4 = CYP3A4 (Homo sapiens (Human), UniProt P08684); experiment: 3A4 subtype of CYP450 enzyme time-dependent inhibition assay (IC50 shift); assay type: in vitro ADME; settings: probe testosterone, 50 µM; 30 min pre-incubation with vs without NADPH, testosterone substrate, human liver microsomes
Chain of CYP3A4 (P08684 whole entry): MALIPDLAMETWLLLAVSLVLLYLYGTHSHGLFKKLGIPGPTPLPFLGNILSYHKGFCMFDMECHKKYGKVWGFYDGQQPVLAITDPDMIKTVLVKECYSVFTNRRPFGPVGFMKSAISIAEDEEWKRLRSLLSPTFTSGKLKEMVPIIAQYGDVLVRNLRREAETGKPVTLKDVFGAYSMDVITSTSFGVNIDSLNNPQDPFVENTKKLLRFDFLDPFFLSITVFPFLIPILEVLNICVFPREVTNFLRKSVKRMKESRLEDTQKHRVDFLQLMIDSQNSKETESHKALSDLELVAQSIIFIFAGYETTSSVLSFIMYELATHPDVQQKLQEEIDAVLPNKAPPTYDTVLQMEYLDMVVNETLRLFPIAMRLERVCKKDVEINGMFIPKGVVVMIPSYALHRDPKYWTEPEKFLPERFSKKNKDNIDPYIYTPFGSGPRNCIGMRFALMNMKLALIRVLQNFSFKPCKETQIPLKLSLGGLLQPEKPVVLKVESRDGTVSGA
Experimental: (§1) The probe substrate was testosterone at a concentration of 50 µM. The reaction was terminated after incubation for 10 min. The IC50 of the compound against enzyme was calculated by measuring the relative yield of metabolite, and the IC50 shift was calculated from the IC50 results of the groups pre-incubated with and without addition of NADPH.

[3] = target: 3A4 subtype of CYP450 enzyme (Homo sapiens (Human), UniProt P08684); experiment: as above; assay type: in vitro ADME; settings: both IC50 values above top concentration; testosterone substrate; read-out: IC50 against 3A4 subtype (both groups, pre-incubated with and without NADPH)
Chain of 3A4 subtype of CYP450 enzyme (P08684 whole entry): as above
Experimental: as §1

SMILES: CCN(c1nc(-c2ccc(F)cc2)c(C#N)s1)c1c2nc(-c3cnc(N4CCC(O)CC4)nc3)ccc2nn1CC [Example 26, 2-(ethyl(2-ethyl-5-(2-(4-hydroxypiperidin-1-yl)pyrimidin-5-yl)-2H-pyrazolo[4,3-b]pyridin-3-yl)amino)-4-(4-fluorophenyl)thiazole-5-carbonitrile]
IC50 (ATX enzyme): 5.5 nM
Cl_F_pred ([1]; IV 2 mg/kg): 4.17 mL/min/kg
Cl_F_pred ([1]; PO 10 mg/kg): 25 mL/min/kg
F [1]: 16.6%
AUC(0-inf) ([1]; IV 2 mg/kg): 8170 ng·h/mL
AUC(0-t) ([1]; IV 2 mg/kg): 7500 ng·h/mL
Cmax ([1]; IV 2 mg/kg): 3070 ng/mL
half-life ([1]; IV 2 mg/kg): 9.3 h
AUC(0-inf) ([1]; PO 10 mg/kg): 6720 ng·h/mL
AUC(0-t) ([1]; PO 10 mg/kg): 6230 ng·h/mL
Cmax ([1]; PO 10 mg/kg): 663 ng/mL
Tmax ([1]; PO 10 mg/kg): 4 h
half-life ([1]; PO 10 mg/kg): 5.8 h
% binuclear cells containing micronucleus ([2]; 3-hour administration with metabolic activation, 3 µg/ml): 1.65%
% binuclear cells containing micronucleus ([2]; 3-hour administration with metabolic activation, 6 µg/ml): 1.65%
% binuclear cells containing micronucleus ([2]; 3-hour administration with metabolic activation, 12 µg/ml): 1.75%
% binuclear cells containing micronucleus ([2]; 3-hour administration with metabolic activation, 20 µg/ml): 1.60%
% binuclear cells containing micronucleus ([2]; 3-hour administration without metabolic activation, 3 µg/ml): 1.85%
% binuclear cells containing micronucleus ([2]; 3-hour administration without metabolic activation, 6 µg/ml): 1.80%
% binuclear cells containing micronucleus ([2]; 3-hour administration without metabolic activation, 12 µg/ml): 1.70%
% binuclear cells containing micronucleus ([2]; 3-hour administration without metabolic activation, 25 µg/ml): 1.50%
% binuclear cells containing micronucleus ([2]; 24-hour administration without metabolic activation, 1 µg/ml): 1.90%
% binuclear cells containing micronucleus ([2]; 24-hour administration without metabolic activation, 3 µg/ml): 1.65%
% binuclear cells containing micronucleus ([2]; 24-hour administration without metabolic activation, 6 µg/ml): 1.85%
% binuclear cells containing micronucleus ([2]; 24-hour administration without metabolic activation, 9 µg/ml): 1.80%
potential to induce micronucleus formation in CHO-WBL cells ([2]; overall verdict over all administration series): negative
IC50 (hERG potassium channel): > 30000 nM
IC50 shift at 10 min (CYP3A4): 1.09

SMILES: CCN(c1nc(-c2ccc(F)cc2)c(C#N)s1)c1c2nc(-c3cnc(N4CC[C@@H](O)C4)nc3)ccc2nn1CC [Example 28, (R)-2-(ethyl(2-ethyl-5-(2-(3-hydroxypyrrolidin-1-yl)pyrimidin-5-yl)-2H-pyrazolo[4,3-b]pyridin-3-yl)amino)-4-(4-fluorophenyl)thiazole-5-carbonitrile]
IC50 (ATX enzyme): 3.8 nM
Cl_F_pred ([1]; IV 2 mg/kg): 2.33 mL/min/kg
Cl_F_pred ([1]; PO 10 mg/kg): 10 mL/min/kg
F [1]: 25.9%
AUC(0-inf) ([1]; IV 2 mg/kg): 14100 ng·h/mL
AUC(0-t) ([1]; IV 2 mg/kg): 13900 ng·h/mL
Cmax ([1]; IV 2 mg/kg): 4380 ng/mL
half-life ([1]; IV 2 mg/kg): 4.1 h
AUC(0-inf) ([1]; PO 10 mg/kg): 18600 ng·h/mL
AUC(0-t) ([1]; PO 10 mg/kg): 18000 ng·h/mL
Cmax ([1]; PO 10 mg/kg): 1720 ng/mL
Tmax ([1]; PO 10 mg/kg): 4 h
half-life ([1]; PO 10 mg/kg): 4.2 h
IC50 shift at 10 min (CYP3A4): 1.28

SMILES: CCN(c1nc(-c2ccc(F)cc2)c(C#N)s1)c1c2nc(-c3cnc(N4CC[C@H](O)C4)nc3)ccc2nn1CC [Example 27, (S)-2-(ethyl(2-ethyl-5-(2-(3-hydroxypyrrolidin-1-yl)pyrimidin-5-yl)-2H-pyrazolo[4,3-b]pyridin-3-yl)amino)-4-(4-fluorophenyl)thiazole-5-carbonitrile]
IC50 (ATX enzyme): 4.6 nM
IC50 (hERG potassium channel): > 30000 nM
IC50 shift at 10 min (CYP3A4): 0.63

SMILES: CCN(c1nc(-c2ccc(F)cc2)c(C#N)s1)c1c2nc(-c3cnc(N4CC(OC(C)=O)C4)nc3)ccc2nn1CC [Example 25, 1-(5-(3-((5-cyano-4-(4-fluorophenyl)thiazol-2-yl)(ethyl)amino)-2-ethyl-2H-pyrazolo[4,3-b]pyridin-5-yl)pyrimidin-2-yl)azetidin-3-yl acetate]
IC50 (ATX enzyme): 12 nM

SMILES: CCc1nn2ccc(-c3cnc(N4CCCS4(=O)=O)nc3)nc2c1N(CC)c1nc(-c2ccc(F)cc2)c(C#N)s1 [Example 18, 2-((5-(2-(1,1-dioxidoisothiazolidin-2-yl)pyrimidin-5-yl)-2-ethyl-pyrazolo[1,5-a]pyrimidin-3-yl)(ethyl)amino)-4-(4-fluorophenyl)thiazole-5-carbonitrile]
IC50 (ATX enzyme): 15 nM

Continued, values first:

IC50 (ATX enzyme): 11 nM
IC50 [3]: > 100000 nM
SMILES: CCN(c1nc(-c2ccc(F)cc2)c(C#N)s1)c1c2nc(-c3cnc(N4CC(O)C4)nc3)ccc2nn1CC [Example 23, 2-(ethyl(2-ethyl-5-(2-(3-hydroxyazetidin-1-yl)pyrimidin-5-yl)-2H-pyrazolo[4,3-b]pyridin-3-yl)amino)-4-(4-fluorophenyl)thiazole-5-carbonitrile]

IC50 (ATX enzyme): 40 nM
SMILES: CCc1nc2ccc(-c3cnc(C(=O)NC4CC5(CNC5)C4)cn3)cn2c1N(C)c1nc(-c2ccc(F)cc2)c(C#N)s1 [Example 15, 5-(3-((5-cyano-4-(4-fluorophenyl)thiazol-2-yl)(methyl)amino)-2-ethylimidazo[1,2-a]pyridin-6-yl)-N-(2-azaspiro[3.3]heptan-6-yl)pyrazin-2-carboxamide]

IC50 (ATX enzyme): 21 nM
IC50 shift at 10 min (CYP3A4): 1.04
SMILES: CCc1nc2ccc(-c3cnc(CC(=O)N4CC(O)C4)cn3)cn2c1N(C)c1nc(-c2ccc(F)cc2)c(C#N)s1 [Example 4, 2-((2-ethyl-6-(5-(2-(3-hydroxyazetidin-1-yl)-2-oxoethyl)pyrazin-2-yl)imidazo[1,2-a]pyridin-3-yl)(methyl)amino)-4-(4-fluorophenyl)thiazole-5-carbonitrile]

IC50 (ATX enzyme): 25 nM
SMILES: CCc1nc2ccc(-c3cnc(CC(=O)N4CC[C@H](O)C4)cn3)cn2c1N(C)c1nc(-c2ccc(F)cc2)c(C#N)s1 [Example 11, (S)-2-((2-ethyl-6-(5-(2-(3-hydroxypyrrolidin-1-yl)-2-oxoethyl)pyrazin-2-yl)imidazo[1,2-a]pyridin-3-yl)(methyl)amino)-4-(4-fluorophenyl)thiazole-5-carbonitrile]

IC50 (ATX enzyme): 45 nM
SMILES: CCc1nc2ccc(-c3cnc(N(C)S(C)(=O)=O)nc3)cn2c1N(CC)c1nc(-c2ccc(F)cc2)c(C#N)s1 [Example 20, N-(5-(3-((5-cyano-4-(4-fluorophenyl)thiazol-2-yl)(ethyl)amino)-2-ethylimidazo[1,2-a]pyridin-6-yl)pyrimidin-2-yl)-N-methylmethanesulfonamide]
